Source: patent US7387895B2, “Monoclonal antibody specific for PPAR gamma, hydridoma cell line producing the same, and method for detecting regulator related to diseases, including inflammation, cancer and metabolic diseases, using the same” (Korea Research Institute of Bioscience and Biotechnology, priority 2003, dated 2008)
“Also recorded” adds a separate entry of the source.

Experiments:
NF-κB = conditions: cited from earlier work
cytokine production = conditions: cited from earlier work
PPAR gamma = target: T1, PPAR gamma (Homo sapiens, UniProt P37231); conditions: components of oxLDL; cited from earlier work
T1 sequence (P37231 1-505): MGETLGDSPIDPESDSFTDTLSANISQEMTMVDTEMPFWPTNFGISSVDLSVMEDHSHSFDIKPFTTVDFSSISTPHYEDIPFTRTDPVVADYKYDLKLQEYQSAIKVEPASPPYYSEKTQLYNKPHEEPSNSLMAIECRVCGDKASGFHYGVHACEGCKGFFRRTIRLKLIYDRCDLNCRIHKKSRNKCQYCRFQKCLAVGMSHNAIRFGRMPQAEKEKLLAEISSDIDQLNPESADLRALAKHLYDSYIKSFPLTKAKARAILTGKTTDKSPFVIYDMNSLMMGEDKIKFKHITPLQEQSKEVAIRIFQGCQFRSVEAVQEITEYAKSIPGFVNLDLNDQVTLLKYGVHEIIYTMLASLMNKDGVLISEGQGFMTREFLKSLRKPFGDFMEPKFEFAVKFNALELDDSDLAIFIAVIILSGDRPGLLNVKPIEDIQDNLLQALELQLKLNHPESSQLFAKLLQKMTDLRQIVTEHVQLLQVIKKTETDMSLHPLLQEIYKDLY

[1] = target: T2, binding between SRC-1 and PPAR gamma2 proteins (Homo sapiens, UniProt P37231); assay: ELISA of binding between SRC-1 and PPAR gamma2; format: biochemical; conditions: 8 μg/ml SRC-1 coated, GST-PPAR gamma2 lysate diluted 64-fold, ligand at different concentrations, FIG. 7B
T2 construct: made in house; host or cells: E. coli (pGEX4T-1/PPARgamma2, KCTC 10190BP; pET28a/SRC-1, KCTC 10191BP)
Method: To examine the effect of PPAR gamma2 protein concentration on the binding between SRC-1 and PPAR gamma2 proteins, the following test was conducted. […] Also, this procedure was repeated three times, and a GST-fused protein which had not been bound to SRC-1 protein was used as a control group. […] Furthermore, to examine the effect of PPAR gamma2 ligand concentration on the binding between SRC-1 and PPAR gamma2 proteins, the following test was conducted. 8 μg/ml SRC-1 was coated on a plate, and E. coli lysate was diluted 64-fold and added to the plate. Then, indomethacin, a PPAR gamma2 ligand, was added to the plate at a different concentration.
His-SRC-1 protein was diluted with 0.1 M sodium carbonate buffer (pH 9.6) to a concentration of about 800 ng/well. 100 μl of the protein dilution was loaded into each well of an ELISA plate, and coated on the plate overnight at 4° C. The coated plate was washed three times with PBS (containing 0.05% Tween®-20), and added with 3% skimmed-PBST solution and left to stand overnight at 4° C. or for 2 hours at room temperature. A soluble fraction of GST-fused PPAR gamma2 was diluted […], and 50 μl of the dilution was added to each well of the plate. Indomethacin, a PPAR gamma2 agonist, was added at 1 μM, 10 μM and 100 μM. […]

T2 sequence (Q15788 whole entry partner, one chain of several): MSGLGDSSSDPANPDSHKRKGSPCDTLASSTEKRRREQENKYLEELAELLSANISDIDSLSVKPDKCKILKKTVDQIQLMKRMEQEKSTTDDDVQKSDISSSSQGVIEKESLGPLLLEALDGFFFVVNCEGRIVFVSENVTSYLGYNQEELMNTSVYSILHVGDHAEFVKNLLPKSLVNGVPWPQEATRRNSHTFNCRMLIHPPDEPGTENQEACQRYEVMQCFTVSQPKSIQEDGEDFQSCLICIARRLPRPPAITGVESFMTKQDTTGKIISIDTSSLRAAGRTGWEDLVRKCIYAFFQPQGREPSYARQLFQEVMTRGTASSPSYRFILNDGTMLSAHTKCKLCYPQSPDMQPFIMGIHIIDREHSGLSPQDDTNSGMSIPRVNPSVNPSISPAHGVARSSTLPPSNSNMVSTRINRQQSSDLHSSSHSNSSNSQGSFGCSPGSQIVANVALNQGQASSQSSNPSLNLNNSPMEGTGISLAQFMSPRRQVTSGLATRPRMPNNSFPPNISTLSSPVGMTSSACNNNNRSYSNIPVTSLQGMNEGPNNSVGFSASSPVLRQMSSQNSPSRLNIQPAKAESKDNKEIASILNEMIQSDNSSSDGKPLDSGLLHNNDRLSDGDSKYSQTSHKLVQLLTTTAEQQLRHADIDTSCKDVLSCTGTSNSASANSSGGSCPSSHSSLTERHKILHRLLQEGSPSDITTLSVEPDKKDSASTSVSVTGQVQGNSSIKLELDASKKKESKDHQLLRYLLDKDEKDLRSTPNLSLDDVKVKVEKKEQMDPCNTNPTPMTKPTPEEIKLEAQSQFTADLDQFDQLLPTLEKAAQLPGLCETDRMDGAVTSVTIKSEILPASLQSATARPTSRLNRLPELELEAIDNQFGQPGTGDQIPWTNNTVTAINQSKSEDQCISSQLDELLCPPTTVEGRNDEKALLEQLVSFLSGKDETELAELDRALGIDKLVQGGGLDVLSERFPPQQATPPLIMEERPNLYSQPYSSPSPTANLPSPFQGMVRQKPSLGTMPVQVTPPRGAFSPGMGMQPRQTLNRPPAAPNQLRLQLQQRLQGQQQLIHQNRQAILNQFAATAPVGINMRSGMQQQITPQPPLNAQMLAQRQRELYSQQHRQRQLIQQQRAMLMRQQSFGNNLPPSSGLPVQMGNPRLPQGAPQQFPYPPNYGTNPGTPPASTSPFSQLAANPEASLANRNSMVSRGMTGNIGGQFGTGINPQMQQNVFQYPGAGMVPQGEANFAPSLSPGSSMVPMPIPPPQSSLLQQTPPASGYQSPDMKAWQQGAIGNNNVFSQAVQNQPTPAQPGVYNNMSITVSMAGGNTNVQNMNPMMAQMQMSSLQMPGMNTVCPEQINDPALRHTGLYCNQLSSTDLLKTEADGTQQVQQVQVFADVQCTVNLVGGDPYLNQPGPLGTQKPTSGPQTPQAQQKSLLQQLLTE

Compound: CCCCC/C=C/C=C1/C(=O)C=C[C@@H]1C/C=C\CCCC(=O)O [15d-PGJ2]
- NF-κB activity (NF-κB): inhibit NF-κB activity
- cytokine production in embryonic stem cells (cytokine production; PPAR gamma+/+, +/- or -/- embryonic stem cells): inhibited cytokine production
- cytokine production of monocytes or macrophages in vitro (cytokine production; monocytes or macrophages): the most powerful inhibitor

Compound: CCCCCC(O)/C=C/C=C\CCCCCCCC(=O)O (stereo not drawn) [13-HODE]
- PPAR gamma agonist activity (PPAR gamma): PPAR gamma agonists

Compound: CCCCC/C=C\C=C\C(O)CCCCCCCC(=O)O (stereo not drawn) [9-HODE]
- PPAR gamma agonist activity (PPAR gamma): PPAR gamma agonists

Compound: COc1ccc2c(c1)c(CC(=O)O)c(C)n2C(=O)c1ccc(Cl)cc1 [indomethacin]
- binding between SRC-1 and PPAR gamma2 [1]: dependent on the concentration of indomethacin; also recorded: increased
